Experiments:
Experiment in all cases: relative viability (nuclei count vs DMSO), 5 days (fraction); higher = more cells survive
HCC-44 = system: HCC-44
Outline: (§1)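 Relative viability divides the nuclei count in treated wells by that in vehicle wells. Lung cancer cell lines were seeded in 1536-well plates, dosed by pin tool the next day, and fixed and stained after 5 days in one step with final 0.05% Triton X-100, 1% formaldehyde and 1 ug/ml Hoechst. Dosing was a single drug or a fixed anchor-drug dose plus five library-drug doses (not always all listed) in √10 steps, and values are medians of duplicate plates imaged at 4×.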

LC-2-ad = system: LC-2-ad
Outline: as §1

NCI-H2228 = system: NCI-H2228
Outline: as §1

NCI-H838 = system: NCI-H838
Outline: as §1

NCI-H1395 = system: NCI-H1395
Outline: as §1

HOP-62 = system: HOP-62
Outline: as §1

NCI-H1993 = system: NCI-H1993
Outline: as §1

NCI-H1666 = system: NCI-H1666
Outline: as §1

NCI-H322M = system: NCI-H322M
Outline: as §1

NCI-H1355 = system: NCI-H1355
Outline: as §1

NCI-H1651 = system: NCI-H1651
Outline: as §1

201T = system: 201T
Outline: as §1

COR-L23 = system: COR-L23
Outline: as §1

NCI-H2085 = system: NCI-H2085
Outline: as §1

ABC-1 = system: ABC-1
Outline: as §1

NCI-H661 = system: NCI-H661
Outline: as §1

NCI-H23 = system: NCI-H23
Outline: as §1

CAL-12T = system: CAL-12T
Outline: as §1

NCI-H520 = system: NCI-H520
Outline: as §1

LCLC-103H = system: LCLC-103H
Outline: as §1

NCI-H2347 = system: NCI-H2347
Outline: as §1

NCI-H647 = system: NCI-H647
Outline: as §1

`O=c1[nH]c2ccccc2n1C1CCN(CCCC(c2ccc(F)cc2)c2ccc(F)cc2)CC1` [Pimozide] + C[C@]1(O)C[C@@H](c2nc(-c3ccc4ccc(-c5ccccc5)nc4c3)c3c(N)nccn32)C1 [Linsitinib] (partner 1 µM) showed a relative viability (HCC-44; first compound 0.08 µM) of 0.635, a relative viability (HCC-44; first compound 0.253 µM) of 0.703 and a relative viability (HCC-44; first compound 0.8 µM) of 0.64. The relative viability (HCC-44; first compound 2.53 µM) was 0.653, the relative viability (HCC-44; first compound 8 µM) was 0.685 and the relative viability (LC-2-ad; first compound 0.08 µM) was 0.818. It also gave a relative viability (LC-2-ad; first compound 0.253 µM) of 0.819, a relative viability (LC-2-ad; first compound 0.8 µM) of 0.797 and a relative viability (LC-2-ad; first compound 2.53 µM) of 0.891. For the same molecule, the relative viability (LC-2-ad; first compound 8 µM) was 0.746, the relative viability (NCI-H2228; first compound 0.08 µM) was 0.475 and the relative viability (NCI-H2228; first compound 0.253 µM) was 0.909. The relative viability (NCI-H2228; first compound 0.8 µM) was 0.404, the relative viability (NCI-H2228; first compound 2.53 µM) was 0.392 and the relative viability (NCI-H2228; first compound 8 µM) was 0.291. It also gave a relative viability (NCI-H838; first compound 0.08 µM) of 1.01, a relative viability (NCI-H838; first compound 0.253 µM) of 0.999 and a relative viability (NCI-H838; first compound 0.8 µM) of 0.885. The relative viability (NCI-H838; first compound 2.53 µM) was 1.01, the relative viability (NCI-H838; first compound 8 µM) was 1.04 and the relative viability (NCI-H1395; first compound 0.08 µM) was 1.12. The relative viability (NCI-H1395; first compound 0.253 µM) was 1.07, the relative viability (NCI-H1395; first compound 0.8 µM) was 1.07 and the relative viability (NCI-H1395; first compound 2.53 µM) was 1.35. For the same molecule, the relative viability (NCI-H1395; first compound 8 µM) was 1.09, the relative viability (HOP-62; first compound 0.08 µM) was 0.847 and the relative viability (HOP-62; first compound 0.253 µM) was 0.839. For the same molecule, the relative viability (HOP-62; first compound 2.53 µM) was 1.04, the relative viability (HOP-62; first compound 8 µM) was 0.754 and the relative viability (NCI-H1993; first compound 0.08 µM) was 0.662. It also gave a relative viability (NCI-H1993; first compound 0.253 µM) of 0.659, a relative viability (NCI-H1993; first compound 0.8 µM) of 0.571 and a relative viability (NCI-H1993; first compound 2.53 µM) of 0.725. For the same molecule, the relative viability (NCI-H1993; first compound 8 µM) was 0.755, the relative viability (NCI-H1666; first compound 0.08 µM) was 0.786 and the relative viability (NCI-H1666; first compound 0.253 µM) was 0.723. For the same molecule, the relative viability (NCI-H1666; first compound 0.8 µM) was 0.711, the relative viability (NCI-H1666; first compound 2.53 µM) was 0.73 and the relative viability (NCI-H1666; first compound 8 µM) was 0.635. The relative viability (NCI-H322M; first compound 0.253 µM) was 0.875, the relative viability (NCI-H322M; first compound 0.8 µM) was 0.79 and the relative viability (NCI-H322M; first compound 2.53 µM) was 0.834. The relative viability (NCI-H322M; first compound 8 µM) was 0.971, the relative viability (NCI-H1355; first compound 0.08 µM) was 0.701 and the relative viability (NCI-H1355; first compound 0.253 µM) was 0.804. For the same molecule, the relative viability (NCI-H1355; first compound 0.8 µM) was 0.758, the relative viability (NCI-H1355; first compound 2.53 µM) was 0.803 and the relative viability (NCI-H1355; first compound 8 µM) was 0.762. The relative viability (NCI-H1651; first compound 0.08 µM) was 0.897, the relative viability (NCI-H1651; first compound 0.253 µM) was 1 and the relative viability (NCI-H1651; first compound 0.8 µM) was 0.922. It also gave a relative viability (NCI-H1651; first compound 2.53 µM) of 0.97, a relative viability (NCI-H1651; first compound 8 µM) of 0.951 and a relative viability (201T; first compound 0.08 µM) of 1. For the same molecule, the relative viability (201T; first compound 0.253 µM) was 1.01, the relative viability (201T; first compound 0.8 µM) was 1 and the relative viability (201T; first compound 2.53 µM) was 1.05. The relative viability (201T; first compound 8 µM) was 0.884, the relative viability (COR-L23; first compound 0.08 µM) was 0.956 and the relative viability (COR-L23; first compound 0.253 µM) was 0.76. It also gave a relative viability (COR-L23; first compound 0.8 µM) of 0.832, a relative viability (COR-L23; first compound 2.53 µM) of 0.887 and a relative viability (COR-L23; first compound 8 µM) of 0.84. For the same molecule, the relative viability (NCI-H2085; first compound 0.08 µM) was 0.916, the relative viability (NCI-H2085; first compound 0.253 µM) was 0.934 and the relative viability (NCI-H2085; first compound 0.8 µM) was 0.818. The relative viability (NCI-H2085; first compound 2.53 µM) was 0.942, the relative viability (NCI-H2085; first compound 8 µM) was 0.762 and the relative viability (ABC-1; first compound 0.08 µM) was 0.825. For the same molecule, the relative viability (ABC-1; first compound 0.253 µM) was 0.747, the relative viability (ABC-1; first compound 0.8 µM) was 0.788 and the relative viability (ABC-1; first compound 2.53 µM) was 0.629. The relative viability (ABC-1; first compound 8 µM) was 0.491, the relative viability (NCI-H661; first compound 0.08 µM) was 0.659 and the relative viability (NCI-H661; first compound 0.253 µM) was 0.422. The relative viability (NCI-H661; first compound 0.8 µM) was 0.557, the relative viability (NCI-H661; first compound 2.53 µM) was 0.513 and the relative viability (NCI-H661; first compound 8 µM) was 0.536. The relative viability (NCI-H23; first compound 0.08 µM) was 0.609, the relative viability (NCI-H23; first compound 0.253 µM) was 0.577 and the relative viability (NCI-H23; first compound 0.8 µM) was 0.49. The relative viability (NCI-H23; first compound 2.53 µM) was 0.553, the relative viability (NCI-H23; first compound 8 µM) was 0.513 and the relative viability (CAL-12T; first compound 0.08 µM) was 0.745. For the same molecule, the relative viability (CAL-12T; first compound 0.253 µM) was 0.803, the relative viability (CAL-12T; first compound 0.8 µM) was 0.936 and the relative viability (CAL-12T; first compound 2.53 µM) was 0.755. The relative viability (CAL-12T; first compound 8 µM) was 0.788, the relative viability (NCI-H520; first compound 0.08 µM) was 0.894 and the relative viability (NCI-H520; first compound 0.253 µM) was 1. The relative viability (NCI-H520; first compound 0.8 µM) was 1.01, the relative viability (NCI-H520; first compound 2.53 µM) was 0.995 and the relative viability (NCI-H520; first compound 8 µM) was 0.937. For the same molecule, the relative viability (LCLC-103H; first compound 0.08 µM) was 1.01, the relative viability (LCLC-103H; first compound 0.253 µM) was 1.02 and the relative viability (LCLC-103H; first compound 0.8 µM) was 1. The relative viability (LCLC-103H; first compound 2.53 µM) was 1.07, the relative viability (LCLC-103H; first compound 8 µM) was 1.38 and the relative viability (NCI-H2347; first compound 0.08 µM) was 1.03. For the same molecule, the relative viability (NCI-H2347; first compound 0.253 µM) was 0.941, the relative viability (NCI-H2347; first compound 0.8 µM) was 0.836 and the relative viability (NCI-H2347; first compound 2.53 µM) was 0.944. For the same molecule, the relative viability (NCI-H2347; first compound 8 µM) was 0.958, the relative viability (NCI-H647; first compound 0.08 µM) was 1.16 and the relative viability (NCI-H647; first compound 0.253 µM) was 1.06. For the same molecule, the relative viability (NCI-H647; first compound 0.8 µM) was 1.1, the relative viability (NCI-H647; first compound 2.53 µM) was 1.17 and the relative viability (NCI-H647; first compound 8 µM) was 0.779.
